Assays:
[1] = system: cynomolgus macaque erythrocytes; test: In vitro hemolysis assay, cynomolgus macaque erythrocytes; type: cell-based
Excerpt: However, the in vitro systems used to test this question have significant limitations, including a complete lack of macrophages in the test system.

[2] = system: low Her2-expressing breast cancer cell line (MCF7); test: Macrophage engulfment of MCF7 cells; type: cell-based, human; details: HER2LOW cell line MCF7
RAW264.7-ISG cells = test: RAW264.7-ISG interferon reporter cells co-cultured with A20 lymphoma cells; type: cell-based, murine; details: co-culture with A20 lymphoma cells, 24 hours
Method: (§1) FIG. 8D: Macrophage:Toledo lymphoma co-cultures were harvested 2 hours into phagocytosis assays in the presence of rituximab ([…]), SIRPα-Fc-CD40L ([…]), or the combination of both agents. Macrophages were isolated by CD11b+FACS, RNA was prepared, cDNA synthesized, and gene expression (IFNa1, IFNb1, CD80, and CD86) assessed by qRT-PCR. Fold change was calculated using DDCT and values obtained from the housekeeping gene ACTB, and the corresponding values from untreated samples. […] After 2 hours, co-cultures were isolated from tissue culture vessels and were stained with a fluorescently conjugated CD11b antibody to discriminate macrophages. Cells were then assessed by flow cytometry for the co-localization of fluorescent signal from both cells types. […] After 24-hours type I interferon induced luminescence was assessed using a luminometer. The maximum luminescence (RLU) from each experiment was set to 1, and all other samples were normalized accordingly. […]
Additionally, a macrophage reporter system was used to detect activation. […] After 24 hours, culture supernatant was collected and assessed for luciferase activity, which would indicate activation of a type I interferon response in the RAW-ISG reporter cells. […]

[3] = system: macrophages co-cultured with Toledo lymphoma cells; test: qRT-PCR of macrophages sorted from Toledo lymphoma co-cultures; type: cell-based, human; details: qRT-PCR on macrophages isolated by FACS from Toledo co-cultures
Method: as §1
RNA was prepared from macrophages isolated using fluorescent activated cell sorting (FACS) from SIRPα-Fc-CD40L/Rituximab treated co-cultures macrophages and Toledo lymphoma cells. The RNA was assessed by gRT-PCR for expression of IFNα1 and IFNβ1, and the macrophage activation markers CD80 and CD86.

parental CHOK1 cells = test: Flow cytometry binding to parental CHOK1 cells
Excerpt: Scale is shown and yellow arrows correspond with each identified monomer. A schematic of the hexamer species is shown to the right, depicting dimerization of the Fc domain and trimerization of the CD40L domain. […] Recombinant hSIRPα-Fc, hCD40L-Fc, and hIgG1 were used as positive controls. […] In both panels, the CHOK1 Parental is on the left and the CHOK1/hCD47 is on the right. […] For both graphs, the CHOK1 Parental is on the bottom. […] In this figure, the control is the top curve, the SIRPα-Fc-CD40L is the middle curve, and the anti-CD47 is the bottom curve.
The extracellular domain (ECD) of SIRPα and the ECD of CD40L were fused via an antibody Fc domain to generate SIRPαECD-Fc-CD40LECD chimeric proteins. When human proteins were used, the chimeric protein is referred to as hSIRPα-Fc-CD40L; when murine proteins were used, the chimeric protein is referred to as and mSIRPα-Fc-CD40L. […] The purified protein was then analyzed for the presence of each individual domain by Western blotting using anti-SIRPα, anti-Fc, and anti-CD40L antibodies (FIG. 3A, bottom). […] Next, binding affinities for SIRPα-Fc-CD40L to recombinant CD47, CD40, or Fc receptors were evaluated by surface plasmon resonance (SPR). […] A functional ELISA evaluated whether SIRPα-Fc-CD40L could outcompete a commercially available single-sided SIRPα-Fc control for binding to recombinant CD47 (FIG. 3H).

[4] = Repeat-dose safety and activity study in cynomolgus macaques; type: in vivo
Method: FIG. 21A-D is a graph showing cynomolgus macaques that were treated with vehicle, or 0.1, 1, 10, and 40 mg/kg of SIRPα-Fc-CD40L. Blood chemistry analysis assessed peripheral erythrocyte counts (FIG. 21A), hemoglobin levels (FIG. 21C), and hematocrit (FIG. 21B). In addition, the fold-change in lymphocyte count from pre-dose to 24 hours post-dose is shown (FIG. 21D).
The experiments of this example tested the safety and activity of the human SIRPα-Fc-CD40L chimeric protein following repeat doses in cynomolgus macaques. Briefly, naïve cynomolgus macaques were administered the human SIRPα-Fc-CD40L chimeric protein by intravenous infusion every week, for five consecutive weeks, at doses of 0.1, 1, 10 and 40 mg/kg. Standard hematology and clinical chemistry parameters were collected before and after each dose.
Receptor occupancy was evaluated on circulating CD40+ lymphocytes.

## SIRPα-Fc-CD40L: Generic name of the SIRPα ECD-Fc-CD40L ECD chimeric protein; human or murine version depending on the test system
[1]
  hemolysis in vitro: did not reveal evidence of hemolysis
[2]
  phagocytosis: demonstrated monotherapy activity
RAW264.7-ISG cells
  type I interferon response, interferon gene-driven luciferase activity: stimulates an increase in interferon gene-driven luciferase activity
[3]
  macrophage activation (CD80, CD86) and expression of type I interferon genes (IFNα1, IFNβ1): induced macrophage activation and the expression of type I interferon genes
Parental CHOK1 cells
  binding to parental CHOK1 cells: not to parental CHOK1 cells
[4]; 0.1, 1, 10 and 40 mg/kg
  number of CD40+ cells in the peripheral blood: dose-dependent decrease in the number of CD40+ cells in the peripheral blood
[4]; declines also noted in the vehicle control group
  hematology parameters: Mild declines in hematology parameters
[4]; episodic fluctuation
  total number of lymphocytes before and after each dose: did not depart from the upper and lower range of normal
[4]; following each infusion
  serum cytokines (CCL2, CXCL9, CXCL10, IL-6, IL-15, IL-17A, IL-23): dose-dependent increases in multiple serum cytokines
